The assay has as its system BDF1 mice, P388 leukemia ip, median survival T/C. In words: NCI In Vivo Anticancer Drug Screen. Data for tumor model P388 Leukemia (intraperitoneal) in B6D2F1 (BDF1) mice. Particulars: endpoint: median survival time, higher = longer survival. The gist of the method: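 Read-out is survival of treated animals expressed relative to the vehicle group, as a T/C ratio.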
Setting [1] is: dose: 100.0 mg/kg/injection, schedule: Q01DX009 (ip), vehicle: water.
The mark [2] stands for this setting: dose: 100.0 mg/kg/injection, schedule: Q01DX001 (ip), vehicle: Klucel (hydroxypropylcellulose) (HPC).
The mark [3] stands for this setting: dose: 200.0 mg/kg/injection, schedule: Q01DX001 (ip), vehicle: Klucel (hydroxypropylcellulose) (HPC).
Where [4] appears, read: dose: 400.0 mg/kg/injection, schedule: Q01DX001 (ip), vehicle: Klucel (hydroxypropylcellulose) (HPC).
Where [5] appears, read: dose: 12.5 mg/kg/injection, schedule: Q01DX009 (ip), vehicle: Klucel (hydroxypropylcellulose) (HPC).
Setting [6] is: dose: 25.0 mg/kg/injection, schedule: Q01DX009 (ip), vehicle: Klucel (hydroxypropylcellulose) (HPC).
Setting [7] is: dose: 50.0 mg/kg/injection, schedule: Q01DX009 (ip), vehicle: Klucel (hydroxypropylcellulose) (HPC).
Setting [8] is: dose: 100.0 mg/kg/injection, schedule: Q01DX009 (ip), vehicle: saline with Tween-80.
[9] abbreviates: dose: 100.0 mg/kg/injection, schedule: Q04DX003 (ip), vehicle: saline with Tween-80.
Setting [10] is: dose: 200.0 mg/kg/injection, schedule: Q04DX003 (ip), vehicle: saline with Tween-80.
Where [11] appears, read: dose: 400.0 mg/kg/injection, schedule: Q04DX003 (ip), vehicle: saline with Tween-80.
Where [12] appears, read: dose: 100.0 mg/kg/injection, schedule: Q04DX003 (ip), vehicle: water.
[13] abbreviates: dose: 200.0 mg/kg/injection, schedule: Q01DX009 (ip), vehicle: water.
The mark [14] stands for this setting: dose: 200.0 mg/kg/injection, schedule: Q04DX003 (ip), vehicle: water.
Where [15] appears, read: dose: 25.0 mg/kg/injection, schedule: Q01DX009 (ip), vehicle: saline with Tween-80.
[16] abbreviates: dose: 25.0 mg/kg/injection, schedule: Q04DX003 (ip), vehicle: saline with Tween-80.
Where [17] appears, read: dose: 50.0 mg/kg/injection, schedule: Q01DX009 (ip), vehicle: saline with Tween-80.
Setting [18] is: dose: 50.0 mg/kg/injection, schedule: Q04DX003 (ip), vehicle: saline with Tween-80.
Where [19] appears, read: dose: 200.0 mg/kg/injection, schedule: Q01DX009 (ip), vehicle: saline with Tween-80.
[20] abbreviates: dose: 400.0 mg/kg/injection, schedule: Q01DX009 (ip), vehicle: saline with Tween-80.
[21] abbreviates: dose: 50.0 mg/kg/injection, schedule: Q01DX009 (ip), vehicle: water.

Molecules are shown by their SMILES. Where “and” joins values, the source holds several entries; their conditions need not be identical. Equal values may be shown once. Toxic doses and inconclusive results are not listed.

Take `COc1cc2c(cc1OC)C(=O)N(C)CC2`: the T/C is 105 % of control (dose: 50.0 mg/kg/injection, schedule: Q01DX009 (ip), vehicle: saline); 97 % of control under setting [1]; 119 % of control (dose: 200.0 mg/kg/injection, schedule: Q01DX009 (ip), vehicle: saline).
As to `CN1CCN(C(=O)Nc2ccc(N=Nc3ccccc3)cc2)CC1`, the T/C is, setting by setting: (dose: 4.16 mg/kg/injection, schedule: Q01DX009 (ip), vehicle: saline with Tween-80) 100 % of control; (dose: 6.25 mg/kg/injection, schedule: Q01DX009 (ip), vehicle: saline with Tween-80) 90 % of control; (dose: 9.38 mg/kg/injection, schedule: Q01DX009 (ip), vehicle: saline with Tween-80) 90 % of control; (dose: 50.0 mg/kg/injection, schedule: Q04DX003 (ip), vehicle: saline sonified) 95 % of control; (dose: 100.0 mg/kg/injection, schedule: Q04DX003 (ip), vehicle: saline sonified) 100 % of control.
In the case of `CC(C)(C)CC(C)(C)c1ccc(OCCOc2ccccc2NC(=O)CC(=O)c2cccc([N+](=O)[O-])c2)cc1`, the T/C under setting [2] was 95 % of control, the T/C under setting [3] is 95 % of control and the T/C under setting [4] was 95 % of control.
With `C=[CH][Sn][CH2]CCC`, the T/C is, setting by setting: under setting [5], 100 % of control; under setting [6], 103 % of control; under setting [7], 99 % of control.
`COC1NC(=O)NC(=O)C1=[N+]=[N-]` (stereo not drawn): the T/C runs as follows: (dose: 3.3 mg/kg/injection, schedule: Q01DX009 (ip), vehicle: saline with Tween-80) 170 % of control; (dose: 5.0 mg/kg/injection, schedule: Q01DX009 (ip), vehicle: saline with Tween-80) 175 % of control.
Consider `CCOC(=O)c1c[nH]c(=O)c([N+](=O)[O-])c1O`, for which the T/C under setting [8] is 96 % of control, the T/C under setting [9] was 108 % of control, the T/C under setting [10] is 95 % of control and the T/C under setting [11] is 112 % of control.
In the case of `CCCCCCCCCCCC1=NC(CO)(CO)CO1`, the T/C is 100 % of control (dose: 100.0 mg/kg/injection, schedule: Q01DX001 (ip), vehicle: saline with Tween-80); 104 % of control (dose: 200.0 mg/kg/injection, schedule: Q01DX001 (ip), vehicle: saline with Tween-80); 100 % of control (dose: 400.0 mg/kg/injection, schedule: Q01DX001 (ip), vehicle: saline with Tween-80).
On to `Oc1ccc(OCc2ccccc2)cc1`, for which the T/C by setting is: (dose: 100.0 mg/kg/injection, schedule: Q04DX003 (ip), vehicle: other) 100 % of control; (dose: 200.0 mg/kg/injection, schedule: Q04DX003 (ip), vehicle: other) 104 % of control; (dose: 400.0 mg/kg/injection, schedule: Q04DX003 (ip), vehicle: other) 100 % of control.
Consider `COC(=O)c1cccn1C(=O)c1c2nc3c(C(=O)n4cccc4C(=O)OC)ccc(C)c3oc-2c(C)c(=O)c1N`, for which the T/C under setting [9] was 101 % of control, the T/C under setting [10] is 102 % of control and the T/C under setting [11] was 103 % of control.
As for `Cn1c[n+](C)ccc1=O`, the T/C was 97 % of control under setting [1]; 91 % of control under setting [12]; 107 % of control under setting [13]; 88 % of control under setting [14]; 97 % of control (dose: 400.0 mg/kg/injection, schedule: Q01DX009 (ip), vehicle: water); 89 % of control (dose: 400.0 mg/kg/injection, schedule: Q04DX003 (ip), vehicle: water).
Regarding `COc1cc2c(cc1OC)C1CNC(=O)C1C(c1ccccc1)C2` (stereo not drawn), the T/C (dose: 50.0 mg/kg/injection, schedule: Q01DX001 (ip), vehicle: Klucel (hydroxypropylcellulose) (HPC)) is 100 % of control; the T/C under setting [2] is 95 % of control; the T/C under setting [3] is 100 % of control; the T/C under setting [4] is 96 % of control.
Take `NNc1ncnc2c1ccn2C1OC(CO)C(O)C1O` (stereo not drawn): the T/C is, setting by setting: under setting [15], 150 % of control; under setting [16], 104 % of control; (dose: 37.5 mg/kg/injection, schedule: Q01DX009 (ip), vehicle: saline with Tween-80) 155 % of control; under setting [17], 100 % of control; under setting [18], 108 % of control; under setting [9], 108 % of control.
With `CCC(C)C1(C)OC1C(=O)OC` (stereo not drawn), the T/C was 107 % of control under setting [19] and 107 % of control under setting [20].
For `NOCc1ccccc1CON`, the T/C reads like this: (dose: 37.5 mg/kg/injection, schedule: Q04DX003 (ip), vehicle: saline) 108 % of control; (dose: 75.0 mg/kg/injection, schedule: Q04DX003 (ip), vehicle: saline) 95 % of control; (dose: 150.0 mg/kg/injection, schedule: Q04DX003 (ip), vehicle: saline) 100 % of control.
For the compound `COC(=O)C1CC2C(CCC3C(C)(C(=O)OC)CCCC23C)C(=O)C1(O)C(C)C` (stereo not drawn), the T/C under setting [8] is 100 % of control, the T/C under setting [19] is 100 % of control and the T/C under setting [20] is 90 % of control.
For the compound `Cc1nc(C(=O)O)c(=O)[nH]c1C`, the T/C was 114 % of control under setting [21]; 94 % of control (dose: 50.0 mg/kg/injection, schedule: Q04DX003 (ip), vehicle: water); 122 % of control under setting [1]; 105 % of control under setting [12]; 121 % of control under setting [13]; 100 % of control under setting [14].
As for `COC(=O)C(CO)NC(=O)OCc1ccccc1` (stereo not drawn), the T/C by setting is: (dose: 12.5 mg/kg/injection, schedule: Q01DX009 (ip), vehicle: water) 100 % of control; (dose: 25.0 mg/kg/injection, schedule: Q01DX009 (ip), vehicle: water) 100 % of control; under setting [21], 96 % of control; under setting [1], 96 % of control; under setting [13], 100 % of control.
As for `CCN=C=NCCCN(C)C`, the T/C (dose: 7.5 mg/kg/injection, schedule: Q01DX009 (ip), vehicle: saline) is 105 % of control; the T/C (dose: 15.0 mg/kg/injection, schedule: Q01DX009 (ip), vehicle: saline) was 105 % of control; the T/C (dose: 30.0 mg/kg/injection, schedule: Q01DX009 (ip), vehicle: saline) is 94 % of control; the T/C (dose: 60.0 mg/kg/injection, schedule: Q01DX009 (ip), vehicle: saline) was 100 % of control.
As to `[N-]=[N+]=[N-]`, the T/C reads like this: (dose: 2.5 mg/kg/injection, schedule: Q01DX009 (ip), vehicle: saline) 90 % of control; (dose: 5.0 mg/kg/injection, schedule: Q01DX009 (ip), vehicle: saline) 90 % of control; (dose: 5.0 mg/kg/injection, schedule: Q04DX003 (ip), vehicle: saline) 112 % of control; (dose: 10.0 mg/kg/injection, schedule: Q04DX003 (ip), vehicle: saline) 95 % of control.
Regarding `O=C(CC(=O)C(F)(F)F)c1ccc2c(c1)Cc1ccccc1-2`, the T/C was 124 % of control under setting [9] and 111 % of control under setting [10].
In the case of `CCOC1(OCC)OC(c2ccccc2)=C(C#N)C(/C=C\c2ccccc2)C1(OCC)OCC` (stereo not drawn), the T/C under setting [17] was 92 % of control, the T/C under setting [8] is 92 % of control and the T/C under setting [19] is 90 % of control.
For the compound `CCCNC1(C(N)=O)CCN(Cc2ccccc2)CC1`, the T/C reads like this: under setting [15], 107 % of control; under setting [16], 104 % of control; under setting [17], 111 % of control; under setting [18], 86 % of control; under setting [8], 96 % of control; under setting [9], 95 % of control.
Regarding `CCCCNC(C)(C)C(SSS(=O)(=O)O)c1ccc(Cl)cc1` (stereo not drawn), the T/C under setting [9] was 100 % of control, the T/C under setting [10] was 100 % of control and the T/C under setting [11] was 116 % of control.
Turning to `CC1(C)CCC(C)(C)c2c1ccc(O)c2Sc1c(O)ccc2c1C(C)(C)CCC2(C)C`, the T/C under setting [17] is 97 % of control; the T/C under setting [8] was 97 % of control and 119 % of control; the T/C under setting [19] is 102 % of control and 104 % of control; the T/C under setting [20] is 93 % of control.
Take `CC(C)(C#N)N=NC(C)(C)C#N`: the T/C reads like this: under setting [5], 95 % of control; under setting [6], 90 % of control; under setting [7], 90 % of control.

The record behind these values is PubChem BioAssay AID328 (DTP/NCI, 2004).
